Measured values reported in patent publication US20210198313A1, “METHOD OF PRODUCING IMIDAZOLE DIPEPTIDES” (Tokai Bussan Co., Ltd., priority 2019, published 2021).

Experiments:
[1] = Titration of 0.1 M aqueous solutions with 0.1 N sulfuric acid and 0.1 N sodium hydroxide to determine dissociation constants and charge state; assay type: physicochemical
From the text: In view of the difference between the adsorption behaviors of imidazole dipeptides, including anserine and carnosine, and creatinine on a strongly acidic cation exchange resin, each electrical dissociation behavior of the compounds with respect to pH values was experimentally measured by the titration method as mentioned below. The terms “pK” and “pI” are the dissociation constant and the isoelectric point, respectively.
The 0.1 M aqueous solutions of L-anserine, L-carnosine and creatinine were prepared and the titration curves were generated with 0.1 N sulfuric acid and 0.1 N sodium hydroxide according to known methods. From each titration curve, pK1, pKR and pK2 were determined.
In Table 1, with respect to anserine and carnosine, pK1 represents the dissociation of carboxyl group, pKR represents the dissociation of imidazole group, and pK2 represents the dissociation of amino group. With respect to creatinine, pKR represents the dissociation of imidazole group.
Based on the measured results, the state of the charge of anserine, carnosine and creatinine at each pH value is shown in FIG. 1.

[2] = cited from earlier work
[3] = Dissociation constants disclosed in published references; assay type: physicochemical; conditions: converted from literature pKb 9.20
From the text: For example, Bate-Smith (Bate-Smith, E. C., J. Physiol. (London) 92, 336 (1938)) discloses the results that pK2 of carnosine was 6.83, and Doutsch et al. (Dutch, A., Eggleton, P., Biochem. J. 32, 209 (1938)), discloses the results that pK2 of anserin was 7.04. In these references, pK2 means the dissociation constant of imidazole group and corresponds to pKR in Table 1. […] If converted to pKR, it is 4.8. Thus, each pKR for anserine, carnosine and creatinine in Table 1 was well consistent with the data described in the references.

[4] = 0.1 M aqueous solution, titration curve

Row | pI (isoelectric point) [1, 4] | pK1 (dissociation of carboxyl group) [1, 4] | pK2 (dissociation of amino group) [1, 4] | pKR (dissociation of imidazole group) [1, 4] | positive charge ([1]; pH 5, FIG. 1) | positive charge ([1]; pH 7, FIG. 1) | positive charge ([1]; pH 8, FIG. 1) | pKR converted from pKb [3] | Compound | pK2 (dissociation constant of imidazole group, corresponds to pKR in Table 1) ([2]; literature (Bate-Smith 1938; Deutsch and Eggleton 1938)) | pKb ([2]; literature (Eadie and Hunter 1926))
1 | 8.3 | 2.8 | 9.8 | 6.8 | 1 valent | 0.5 valent | 0.1 valent |  | NCCC(=O)N[C@@H](Cc1c[nH]cn1)C(=O)O [Carnosine, β-alanyl histidine] | 6.83 | 
2 |  |  |  |  |  |  |  | 4.8 | CN1CC(=O)NC1=N [Creatinine, creatinine] |  | 9.20
